Data taken from patent EP4417607A1, “HETEROCYCLIC COMPOUND AS SOS1 INHIBITOR AND USES THEREOF” (Nanjing Zaiming Pharmaceutical Co., Ltd., priority 2021, dated 2023).

Assays:
H358 cells = experiment: H358 cell proliferation inhibition (CellTiter-Glo luminescent cell viability assay); assay type: cell-based; settings: Homo sapiens, NCI-H358, 168 h, 7 days
Method in brief: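 H358 cells seeded at 3000 cells/well in RPMI1640/10% FBS, treated with compound for 7 days at 37 °C/5% CO2. Viability read by CellTiter-Glo 3D luminescence, normalised to cell-free (100%) and compound-free (0%) controls; IC50 fitted from 8 concentrations by four-parameter curve.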

[1] = Pharmacokinetics in mice after single intragastric or intravenous administration; assay type: in vivo; settings: female, BALB/c nude, mouse, plasma
Protocol: Healthy adult female BALB/c nude mice were evenly divided into groups of 3 mice per group. 3 mice were administered intragastrically, and 3 mice were administered intravenously. The mice were purchased from Beijing Vital River Laboratory Animal Technology Co., Ltd., animal production license number: SCXK (Zhejiang) 2019-0001.
A certain amount of the compound of the present invention was weighed and dissolved in 5% DMSO + 20% PG + 5% anhydrous ethanol + 10% solutol + 60% water to prepare 5 mg/mL for intragastric administration. A certain amount of the compound of the present invention was weighed and dissolved in 1% DMSO + 4% PG + 1% anhydrous ethanol + 2% solutol + 92% water to prepare 0.5 mg/mL for intravenous injection.
Intragastric administration group: BALB/c nude mice were fasted overnight and then intragastrically administered the compound at a dose of 50 mg/kg and a volume of 10 mL/kg.
Intravenous administration group: BALB/c nude mice were fasted overnight and then intravenously administered the compound at a dose of 3 mg/kg and a volume of 6 mL/kg.
After intragastric administration or intravenous administration, 40 µL of blood was collected from orbits of the mice at 5 min, 15 min, 30 min, 1 h, 2 h, 4 h, 6 h, 8 h, and 24 h after administration, anticoagulated with 5 µL of EDTA-K2, centrifuged at 12000 rpm at 4 °C for 5 min to separate the plasma, and stored at -20 °C.
Determination of plasma concentrations in mice after intragastric administration or intravenous administration of different concentrations of the test compounds: the sample was melted at room temperature and vortexed for 1 min; 10 µL of the sample was quantitatively transferred to a 2-mL 96-well plate; 50 µL of an internal standard solution (a solution of tolbutamide in acetonitrile) and 50 µL of a precipitant (acetonitrile:methanol 7:3) were added, and the plate was shaken (1000 rpm * 3 min); the mixture was centrifuged (4000 rpm * 15 min); 80 µL of the supernatant was transferred to a 2-mL 96-well plate; 80 µL of a diluent (water) was added; the mixture was shaken evenly (1000 rpm * 3 min), and 5 µL of the sample was analyzed. LC/MS/MS conditions: The mobile phase A was 0.1% aqueous formic acid solution. The mobile phase B was 0.1% formic acid in acetonitrile. The column was Waters T3 1.8 µm (2.1 mm * 30 mm). The column temperature was 40 °C.

[2] = test system: p-ERK pathway in H358 cells; experiment: p-ERK pathway inhibition in H358 cells (Advanced phospho-ERK (Thr202/Tyr204) cellular kit, HTRF); assay type: cell-based; settings: Homo sapiens, NCI-H358, 1 h compound incubation
Method in brief: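 Serum-starved H358 cells (50000/well, overnight) treated with compound for 1 h at 37 °C, then lysed; phospho-ERK (Thr202/Tyr204) read by HTRF (665/620 nm ratio). Cell-free wells set 100% inhibition, untreated cells 0%; IC50 fitted from 8 concentrations by four-parameter curve.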

[3] = po, single intragastric administration, 50 mg/kg
[4] = single intravenous administration, 3 mg/kg

| SMILES | IC50 (H358 cells) [nM] | AUC(0-t) [1, 3] [ng·h/mL] | Cmax [1, 3] [ng/mL] | Tmax [1, 3] [min] | half-life [1, 3] [min] | AUC(0-t) [1, 4] [ng·h/mL] | C0 [1, 4] [ng/mL] | half-life [1, 4] [min] | Vd ([1]; single intravenous administration, 3 mg/kg, read-out: Vss) [L/kg] | IC50 [2] [nM] |
| --- | --- | --- | --- | --- | --- | --- | --- | --- | --- | --- |
| COc1c(=O)n(C2(CF)CC2)cc2c(N[C@H](C)c3cccc(C(F)F)c3F)nc(C)nc12 [Example 1, (R)-4-((1-(3-(difluoromethyl)-2-fluorophenyl)ethyl)amino)-6-(1-(fluoromethyl)cyclopropyl)-8-methoxy-2-methylpyrido[4,3-d]pyrimidine-7(6H)-one] | 19.6 | 17800 | 9430 | 24 | 60 | 619 | 2960 | 30 | 3.8 | 20.7 |
| Cc1nc(N[C@H](C)c2cccc(C(F)F)c2F)c2cn(C3(CF)CC3)c(=O)c(N3CCOCC3(C)C)c2n1 [Example 52, (R)-4-((1-(3-(difluoromethyl)-2-fluorophenyl)ethyl)amino)-8-(3,3-dimethylmorpholine) -6-(1-(fluoromethyl)cyclopropyl)-2-methylpyrido[4,3-d]pyrimidine-7(6H)-one] | 26.5 | – | – | – | – | – | – | – | – | 41.4 |
| Cc1nc(N[C@H](C)c2cccc(C(F)F)c2F)c2cn(C3(CF)CC3)c(=O)c(-n3ncc4ncccc43)c2n1 [Example 104, (R)-4-((1-(3-(difluoromethyl)-2-fluorophenyl)ethyl)amino)-6-(1-(fluoromethyl)cyclopropyl)-2-methyl-8-(1H-pyrazolo[4,3-b]pyridin-1-yl)pyrido[4,3-d]pyrimidine-7(6H)-one] | 145 | – | – | – | – | – | – | – | – | 57.5 |

Other lines, results leading:

| IC50 (H358 cells) [nM] | AUC(0-t) [1, 3] [ng·h/mL] | Cmax [1, 3] [ng/mL] | Tmax [1, 3] [min] | half-life [1, 3] [min] | AUC(0-t) [1, 4] [ng·h/mL] | C0 [1, 4] [ng/mL] | half-life [1, 4] [min] | Vd ([1]; single intravenous administration, 3 mg/kg, read-out: Vss) [L/kg] | IC50 [2] [nM] | SMILES |
| --- | --- | --- | --- | --- | --- | --- | --- | --- | --- | --- |
| 68.7 | – | – | – | – | – | – | – | – | 42.8 | COC1(c2c(=O)n(C3(CF)CC3)cc3c(N[C@H](C)c4cccc(C(F)F)c4F)nc(C)nc23)COC1 [Example 150, (R)-4-((1-(3-(difluoromethyl)-2-fluorophenyl)ethyl)amino)-6-(1-(fluoromethyl)cyclopropyl)-8-(3-methoxyoxetan-3-yl)-2-methylpyrido[4,3-d]pyrimidine-7(6H)-one] |
| 46 | – | – | – | – | – | – | – | – | 87.4 | Cc1nc(N[C@H](C)c2cccc(C(F)F)c2F)c2cn(N3CCOCC3)c(=O)c(-c3cnc4ccnn4c3)c2n1 [Example 120, (R)-4-((1-(3-(difluoromethyl)-2-fluorophenyl)ethyl)amino)-2-methyl-6-morpholino-8-(pyrazolo[1,5-a]pyrimidin-6-yl)pyrido[4,3-d]pyrimidine-7(6H)-one] |
